According to US5773646A, “Meta-substituted phenylene derivatives” (G. D. Searle & Co., priority 1997, dated 1998):
Structures can show the parent of a compound that is named as a salt.

What was measured:
[1] = biological target: T1, Human vitronectin receptor (αv β3) (Homo sapiens, UniProt P05106+P06756); assay: Vitronectin adhesion assay (solid phase receptor assay, biotinylated vitronectin competition); assay type: binding; conditions: inhibition of 50% of the maximum binding of biotinylated vitronectin; 1 nM labeled ligand, 2 hours, room temperature, highest concentration of test compound 1.0×10^-4 M; read-out: AvB3 IC50
T1 construct: Human vitronectin receptor(αv β3) was purified from human placenta; from tissue; host or cells: human placenta
Summary of the method: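 Placenta-purified αvβ3 coated at 1.0 μg/mL in TBS (1 mM Ca, Mg, Mn, pH 7.4), overnight 4 °C. Compound competed 2 h at RT with 1 nM biotinylated vitronectin (final; top compound 1.0×10^-4 M); bound ligand detected by HRP anti-biotin/OPD at 450 nm, normalized to no-competitor controls, four-parameter fit.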

[2] = biological target: T2, Human fibrinogen receptor (αIIb β3) (Homo sapiens, UniProt P05106+P08514); assay: Purified IIb/IIIa receptor assay (solid phase receptor assay, biotinylated vitronectin competition); conditions: inhibition of 50% of the maximum binding of biotinylated vitronectin; 1 nM labeled ligand, 2 hours, room temperature, highest concentration of test compound 1.0×10^-4 M
T2 construct: Human fibrinogen receptor (αIIb β3) was purified from outdated platelets; from tissue; host or cells: outdated human platelets
Summary of the method: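 Platelet-purified αIIbβ3 was coated at 100 ng/well in TBS with 1 mM Ca²⁺/Mg²⁺/Mn²⁺, pH 7.4, then BSA-blocked. Compound (up to 1.0×10⁻⁴ M final) competed with 1 nM biotinylated vitronectin for 2 h at room temperature. Bound ligand was detected with HRP anti-biotin at A450, normalized to maximum binding, and curve-fitted.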

IC50 [1] | IC50 [2] | SMILES
30.4 nM | 9750 nM | O=C(O)CCc1cccc(OCC(O)c2cccc(NC3=NCCN3)c2)c1 (stereo not drawn) [Example 71, 3-[2-[3-[(4,5-dihydro-1H-imidazol-2-yl)amino]phenyl]-2-hydroxyethoxy]benzenepropanoic acid, trifluoroacetate salt]
168 nM | 8100 nM | O=C(O)COc1cccc(C(=O)/C=C/c2cccc(NC3=NCCN3)c2)c1 [Example 72, 2-[3-[3-[3-[(4,5-dihydro-1H-imidazol-2-yl)amino]phenyl]-1-oxo-2-propenyl]phenoxy]acetic acid, trifluoroacetate salt hydrate]
589 nM | 11300 nM | N=C(N)Nc1cccc(/C=C/C(=O)c2cccc(OCC(=O)O)c2)c1 [Example 73, 2-[3-[3-[3-[(aminoiminomethyl)amino]phenyl]-1-oxopropenyl]phenoxy]acetic acid, monohydrochloride]
1480 nM | 20100 nM | N=C(N)Nc1cccc(C#Cc2cccc(C(CC(=O)O)c3ccccc3)c2)c1 (stereo not drawn) [Example 74, 3-[2-[3-[(aminoiminomethyl)amino]phenyl]ethynyl]-β-phenylbenzenepropanoic acid, trifluoroacetate salt]
54.5 nM | 6150 nM | N=C(N)Nc1cccc(/C=C/c2cccc(C(CC(=O)O)c3ccccc3)c2)c1 (stereo not drawn) [Example 75, 3-[2E-[3-[(aminoiminomethyl)amino]phenyl]ethenyl]-β-phenylbenzenepropanoic Acid, Bis(trifluoroacetate) Salt]
87 nM | 1770 nM | N=C(N)Nc1cccc(/C=C\c2cccc(C(CC(=O)O)c3ccccc3)c2)c1 (stereo not drawn) [Example 76, 3-[2Z-[3-[(aminoiminomethyl)amino]phenyl]ethenyl]-β-phenylbenzenepropanoic Acid, Bis(trifluoroacetate) Salt]
32.5 nM | 5820 nM | N=C(N)Nc1cccc(S(=O)(=O)Nc2cccc(C(CC(=O)O)c3cc(Cl)cc(Cl)c3)c2)c1 (stereo not drawn) [Example 77, β-[3-[[[3-[(aminoiminomethyl)amino]phenyl]sulfonyl]amino]phenyl]-3,5-dichlorobenzene Propanoic Acid, Trifluoroacetate Salt]
2.54 nM | 803 nM | N=C(N)Nc1cccc(S(=O)(=O)Nc2cccc(C(CC(=O)O)c3cc(F)cc(F)c3)c2)c1 (stereo not drawn) [Example 78, β-[3-[[[3-[(aminoiminomethyl)amino]phenyl]sulfonyl]amino]phenyl]-3,5-difluorobenzenepropanoic Acid, Trifluoroacetate Salt]
10 nM | 327 nM | N=C(N)Nc1cccc(S(=O)(=O)Nc2cccc(C(CC(=O)O)c3ccc(F)cc3)c2)c1 (stereo not drawn) [Example 79, β-[3-[[[3-[(aminoiminomethyl)amino]phenyl]sulfonyl]amino]phenyl]-4-fluorobenzenepropanoic Acid, Trifluoroacetate Salt]
13 nM | 1370 nM | N=C(N)Nc1cccc(S(=O)(=O)Nc2cccc(C(CC(=O)O)c3cc(F)c(F)c(F)c3)c2)c1 (stereo not drawn) [Example 80, β-[3-[[[3-[(aminoiminomethyl)amino]phenyl]sulfonyl]amino]phenyl]-3,4,5-trifluorobenzenepropanoic Acid, Trifluoroacetate Salt]
86 nM | 2550 nM | N=C(N)Nc1cccc(S(=O)(=O)Nc2cccc(C(CC(=O)O)c3c(F)c(F)c(F)c(F)c3F)c2)c1 (stereo not drawn) [Example 81, β-[3-[[[3-[(aminoiminomethyl)amino]phenyl]sulfonyl]amino]phenyl]perfluorobenzenepropanoic Acid, Trifluoroacetate Salt]
191 nM | 11700 nM | N=C(N)Nc1cccc(S(=O)(=O)Nc2cccc(C(CC(=O)O)c3c(F)c(F)cc(F)c3F)c2)c1 (stereo not drawn) [Example 82, β-[3-[[[3-[(aminoiminomethyl)amino]phenyl]sulfonyl]amino]phenyl]-2,3,5,6-tetrafluorobenzenepropanoic Acid, Trifluoroacetate Salt]
122 nM | 18900 nM | O=C(O)CC(c1cc(F)cc(F)c1)c1cccc(NS(=O)(=O)c2cccc(NC(=S)NCc3ccccc3)c2)c1 (stereo not drawn) [Example 83, 3,5-difluoro-β-[3-[[[3-[[[(phenylmethyl)amino]thiocarbonyl]amino]phenyl]sulfonyl]amino]phenyl]benzenepropanoic Acid]
82 nM | 15100 nM | O=C(O)CC(c1cc(F)cc(F)c1)c1cccc(NS(=O)(=O)c2cccc(NC=NCc3ccccc3)c2)c1 (stereo not drawn) [Example 84, 3,5-difluoro-β-[3-[[[3-[[[(phenylmethyl)imino]methyl]amino]phenyl]sulfonyl]amino]phenyl]benzenepropanoic Acid, Trifluoroacetate Salt]
51.2 nM | 3300 nM | N=C(N)Nc1cccc(SCc2cccc(C(CC(=O)O)c3ccccc3)c2)c1 (stereo not drawn) [Example 87, 3-[[3-[(aminoiminomethyl)amino]phenylthio]methyl]-β-phenylbenzenepropanoic Acid, Trifluoroacetate Salt]
19.6 nM | 870 nM | N=C(N)Nc1cccc([S+]([O-])Cc2cccc(C(CC(=O)O)c3ccccc3)c2)c1 (stereo not drawn) [Example 88, 3-[[[3-[(aminoiminomethyl)amino]phenyl]sulfinyl]methyl]-β-phenylbenzenepropanoic Acid, Trifluoroacetate Salt]
4.56 nM | 799 nM | N=C(N)Nc1cccc(S(=O)(=O)Cc2cccc(C(CC(=O)O)c3ccccc3)c2)c1 (stereo not drawn) [Example 89, 3-[[[3-[(aminoiminomethyl)amino]phenyl]sulfonyl]methyl]-β-phenylbenzenepropanoic Acid, Trifluoroacetate Salt]
88.9 nM | 13800 nM | NC(=O)N=C(N)Nc1cccc(S(=O)(=O)Nc2cccc(C(CC(=O)O)c3cc(Cl)cc(Cl)c3)c2)c1 (stereo not drawn) [Example 90, β-[3-[[[3-[[amino[(aminocarbonyl)imino]methyl]amino]phenyl]sulfonyl]amino]phenyl]-3,5-dichlorobenzenepropanoic Acid, Trifluoroacetate Salt]
8.39 nM | 1070 nM | NC(=O)N=C(N)Nc1cccc(S(=O)(=O)Nc2cccc(C(CC(=O)O)c3cc(F)cc(F)c3)c2)c1 (stereo not drawn) [Example 91, β-[3-[[[3-[[amino[(aminocarbonyl)imino]methyl]amino]phenyl]sulfonyl]amino]phenyl]-3,5-difluorobenzenepropanoic Acid, Trifluoroacetate Salt]
12.1 nM | 2050 nM | CCC(CC(=O)O)c1cccc(NS(=O)(=O)c2cccc(NC(=N)N)c2)c1 (stereo not drawn) [Example 94, 3-[[[3-[(aminoiminomethyl)amino]phenyl]sulfonyl]amino]-β-ethylbenzenepropanoic Acid, Trifluoroacetate Salt]
35.7 nM | 8450 nM | CCC(CC(=O)O)c1cccc(NS(=O)(=O)c2cccc(NC(N)=NC(N)=O)c2)c1 (stereo not drawn) [Example 95, 3-[[[3-[[amino[(aminocarbonyl)imino]methyl]amino]phenyl]sulfonyl]amino]-β-ethylbenzenepropanoic Acid, Trifluoroacetate Salt]
435 nM | 2280 nM | N=C(N)Nc1cccc(COc2cccc(C(CC(=O)O)c3ccccc3)c2)c1 (stereo not drawn) [Example 96, 3-[[3-[(aminoiminomethyl)amino]phenyl]methoxy]-β-phenylbenzenepropanoic Acid, Trifluoroacetate Salt]
0.75 nM | 262 nM | O=C(O)CC(c1cc(F)cc(F)c1)c1cccc(NS(=O)(=O)c2cccc(NC3=NCCCN3)c2)c1 (stereo not drawn) [Example 97, 3,5-difluoro-β-[3-[[[3-[(1,4,5,6-tetrahydropyrimidin-2-yl)amino]phenyl]sulfonyl]amino]phenyl]benzenepropanoic Acid, Bis(trifluoroacetate) Salt]
0.85 nM | 642 nM | O=C(O)CC(c1cc(F)cc(F)c1)c1cccc(NS(=O)(=O)c2cccc(NC3=NCCN3)c2)c1 (stereo not drawn) [Example 98, β-[3-[[[3-[(4,5-dihydro-1H-imidazol-2-yl)amino]phenyl]sulfonyl]amino]phenyl]-3,5-difluorobenzenepropanoic Acid, Trifluoroacetate Salt]
48.6 nM | 1000 nM | O=C(O)CC(c1ccccc1)c1cccc(OCc2cccc(NC3=NCCN3)c2)c1 (stereo not drawn) [Example 99, 3-[[3-[(4,5-dihydro-1H-imidazol-2-yl)amino]phenyl]methoxy]-β-phenylbenzenepropanoic Acid, Trifluoroacetate Salt]
21.8 nM | 2340 nM | N=C(N)Nc1cccc(S(=O)(=O)Nc2cccc(C3CC(=O)Oc4ccccc43)c2)c1 (stereo not drawn) [Example 100, 3-[(aminoiminomethyl)amino]-N-[3-(3,4-dihydro-2-oxo-2H-benzopyran-4-yl)phenyl]benzenesulfonamide, Trifluoroacetate Salt]
50.3 nM | 3250 nM | O=C1CC(c2cccc(NS(=O)(=O)c3cccc(NC4=NCCN4)c3)c2)c2ccccc2O1 (stereo not drawn) [Example 101, 3-[(4,5-dihydro-1H-imidazol-2-yl)amino]-N-[3-(3,4-dihydro-2-oxo-2H-benzopyran-4-yl)phenyl]benzenesulfonamide, Trifluoroacetate Salt]
